The values below come from US8669361B2, “Pyrazol-4-yl-heterocyclyl-carboxamide compounds and methods of use” (Genentech, Inc., priority 2010, dated 2014).

Molecules are shown by their SMILES. Read-outs that look alike come from different tables or passages of the source. Some results are limits rather than exact numbers.

One assay has as its system BaF3 PIM1 cells. Briefly: In vitro cell proliferation potency assay, Cell Titer Glo (Example 902). The class given is cell-based, murine. Conditions: Mus musculus. On the procedure: (§1) BaF3 parental line was obtained from the DSMZ repository. BaF3 lines transfected with PIM 1 or PIM2 were generated. Mouse IL-3 was purchased from R&D Systems. G418 was purchased from Clontech. Media for BaF3 parental line contained RPMI, 10% FBS, 2 mM L-Glutamine, 2 ng/mL mIL-3. Media for BaF3 PIM1 & 2 lines contained RPMI, 10% FBS, 2 mM L-Glutamine, […]. Media for MM1.S (multiple myeloma cells) line contained RPMI, 10% FBS, 2 mM L-Glutamine.
(§2) BaF3, a murine interleukin-3 dependent pro-B cell line, parental cells, BaF3 PIM1 cells, BaF3 PIM2 cells, and MM1.S (multiple myeloma) cells were seeded at 2 k/well, 5 k/well, 5 k/well, and 10 k/well respectively, in a 384-well plate, at 45 μL/well. Test compound was added at 5 μL/well. BaF3 cells (parental and transfected) were incubated overnight, while MM1.S cells were incubated for 72 hours at 37° C., 5% CO2. Cell Titer Glo Reagent (Promega) was added at 50 μL/well, the plates were incubated for 30 minutes, and their luminescence read on an HT Analyst. IC50/EC50 values for the test compound were calculated.

The test system of another assay is BaF3 parental cells. The assay is described as above. Type of assay: cell-based, murine. Conditions: Mus musculus. On the procedure:
as §1, §2

Assay [1] concerns MM1.S (multiple myeloma) cells. Described as above. Type of assay: cell-based. Conditions: Homo sapiens, incubated for 72 hours, read-out: Prolif MM1S ATP (EC50). The protocol:
as §1, §2

A further assay deals with PIM1 (Homo sapiens (Human), UniProt P11309). Kind of assay: Pim kinase binding activity, Caliper LC3000 microfluidic peptide phosphorylation assay (Example 901). Conditions: 20 pM PIM1, 1 μM FAM-peptide, 10 μM ATP, 90 minutes at room temperature; read-out: PIM1 LC3K (KI). Type of assay: biochemical. The protocol: (§3) PIM-1, -2, and -3 enzymes were generated as fusion proteins expressed in bacteria and purified by IMAC column chromatography (Sun, X., Chiu, J. F., and He, Q. Y. (2005) Expert Rev. Proteomics, 2:649-657). A fluorescent-labeled Pim-specific peptide substrate, was custom synthesized by American Peptide Company (Sunnyvale, Calif.). Reaction Buffer contained 10 mM HEPES, pH 7.2, 10 mM MgCl2, 0.01% Tween 20, 2 mM DTT. Termination Buffer contained 190 mM HEPES, pH 7.2, 0.015% Brij-35, 0.2% Coating Reagent 3 (Caliper Life Sciences, Hopkinton, Mass.), 20 mM EDTA. Separation Buffer contained 100 mM HEPES, pH 7.2, 0.015% Brij-35, 0.1% Coating Reagent 3, 1:200 Coating Reagent 8 (Caliper Life Sciences, Hopkinton, Mass.), 10 mM EDTA and 5% DMSO.
(§4) PIM reactions were carried out in a final volume of 10 μL per well in a 384-well plate. A standard enzymatic reaction, initiated by the addition of 5 μL 2×ATP and test compound to 5 μL of 2× enzyme and FAM-peptide, contained 20 pM PIM1, 50 pM PIM2, or 55 pM PIM3, 1 μM FAM-peptide, and 10 μM ATP, in Reaction Buffer. After 90 minutes of incubation at room temperature, the phosphorylation reaction was stopped by the addition of 10 μL Termination Buffer. The product and substrate in each independent reaction were separated on a 12-sipper microfluidic chip (Caliper Life Sciences, Hopkinton, Mass.) run on a Caliper LC3000® (Caliper Life Sciences, Hopkinton, Mass.). The separation of product and substrate was optimized by choosing voltages and pressure using Caliper's Optimizer software (Hopkinton, Mass.). The separation conditions used a downstream voltage of −500V, an upstream voltage of −2150V, and a screening pressure of −1.2 psi. The product and substrate fluorophore were excited at 488 nm and detected at 530 nm. Substrate conversion was calculated from the electropherogram using HTS Well Analyzer software (Caliper Life Sciences, Hopkinton, Mass.). Ki values for the test compound were calculated.

The target in the next assay is PIM3 (Homo sapiens (Human), UniProt Q86V86). The assay is described as above. The class given is biochemical. Conditions: 55 pM PIM3, 1 μM FAM-peptide, 10 μM ATP, 90 minutes at room temperature; read-out: PIM3 LC3K (KI). The protocol:
as §3, §4

In a further assay the target is PIM2 (Homo sapiens (Human), UniProt Q9P1W9). The assay is described as above. Type of assay: biochemical. Conditions: 50 pM PIM2, 1 μM FAM-peptide, 10 μM ATP, 90 minutes at room temperature; read-out: PIM2 LC3K (KI). The protocol: A fluorescent-labeled Pim-specific peptide substrate, was custom synthesized by American Peptide Company (Sunnyvale, Calif.). Reaction Buffer contained 10 mM HEPES, pH 7.2, 10 mM MgCl2, 0.01% Tween 20, 2 mM DTT. Termination Buffer contained 190 mM HEPES, pH 7.2, 0.015% Brij-35, 0.2% Coating Reagent 3 (Caliper Life Sciences, Hopkinton, Mass.), 20 mM EDTA. Separation Buffer contained 100 mM HEPES, pH 7.2, 0.015% Brij-35, 0.1% Coating Reagent 3, 1:200 Coating Reagent 8 (Caliper Life Sciences, Hopkinton, Mass.), 10 mM EDTA and 5% DMSO.
as §4, with “A standard enzymatic reaction, initiated by the addition of 5 μL 2×ATP and test compound to 5 μL of 2× enzyme and FAM-peptide, contained 20 pM PIM1, 50 pM PIM2, or 55 pM PIM3, 1 μM FAM-peptide, and 10 μM ATP, in Reaction Buffer.” left out, “The product and substrate fluorophore were excited at 488 nm and detected at 530 nm.” left out

Where [2] appears, read: BaF3 line transfected with PIM1, incubated overnight, read-out: Prolif BaF3 PIM1 (IC50).
The mark [3] stands for this setting: BaF3 parental line, medium with 2 ng/mL mIL-3, incubated overnight, read-out: Prolif BaF3 IL3 (IC50).

Sequence of PIM1 (P11309 whole entry, the tested form may be a part): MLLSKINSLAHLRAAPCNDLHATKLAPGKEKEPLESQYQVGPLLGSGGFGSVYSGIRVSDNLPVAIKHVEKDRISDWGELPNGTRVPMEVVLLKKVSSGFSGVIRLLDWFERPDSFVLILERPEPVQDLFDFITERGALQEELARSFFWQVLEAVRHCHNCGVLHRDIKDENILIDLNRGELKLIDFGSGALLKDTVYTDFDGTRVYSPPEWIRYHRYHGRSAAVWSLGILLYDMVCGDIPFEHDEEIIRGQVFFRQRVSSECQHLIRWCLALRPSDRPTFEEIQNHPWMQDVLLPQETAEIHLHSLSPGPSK
Sequence of PIM2 (Q9P1W9 whole entry): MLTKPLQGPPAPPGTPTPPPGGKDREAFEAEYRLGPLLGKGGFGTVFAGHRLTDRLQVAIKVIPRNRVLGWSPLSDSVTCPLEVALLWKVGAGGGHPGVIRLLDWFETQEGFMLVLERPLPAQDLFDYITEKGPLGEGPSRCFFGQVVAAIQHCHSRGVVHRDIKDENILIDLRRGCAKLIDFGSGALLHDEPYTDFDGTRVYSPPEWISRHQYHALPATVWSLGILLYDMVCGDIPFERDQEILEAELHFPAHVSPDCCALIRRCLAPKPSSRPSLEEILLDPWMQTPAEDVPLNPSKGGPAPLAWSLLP

On to `Cn1ncc(NC(=O)c2nc(-c3ccccc3F)cnc2N)c1N1CCC[C@H](N)CC1` [Example 143, (S)-3-amino-N-(5-(4-aminoazepan-1-yl)-1-methyl-1H-pyrazol-4-yl)-6-(2-fluorophenyl)pyrazine-2-carboxamide], for which the half-inhibitory concentration (IC50) with BaF3 PIM1 cells (setting [2]) came out at 377 nM; in the assay with BaF3 parental cells (setting [3]), 1100 nM.

For `Cn1ncc(NC(=O)c2nc(-c3c(F)cccc3F)sc2N)c1N1CCC(CN)CC1` [Example 133, 5-amino-N-(5-(4-(aminomethyl)piperidin-1-yl)-1-methyl-1H-pyrazol-4-yl)-2-(2,6-difluorophenyl)thiazole-4-carboxamide], the IC50 amounted to 258 nM with BaF3 PIM1 cells (setting [2]) and 25000 nM in the assay on BaF3 parental cells (setting [3]).

Turning to `Cn1ncc(NC(=O)c2nc(-c3ccccc3F)ccc2N)c1OCC1CCNCC1` [Example 117, 3-amino-6-(2-fluorophenyl)-N-(1-methyl-5-(piperidin-4-ylmethoxy)-1H-pyrazol-4-yl)picolinamide], the IC50 in the assay on BaF3 PIM1 cells (BaF3, read-out: Prolif BaF3 PIM1 (IC50)) is 4900 nM; in the assay with BaF3 parental cells (BaF3, read-out: Prolif BaF3 IL3 (IC50)), more than 25000 nM.

In the case of `Cn1ncc(NC(=O)c2nc(-c3ccccc3F)ccc2N)c1N1CC[C@@H](CN)C1` [Example 134, (S)-3-amino-N-(5-(3-(aminomethyl)pyrrolidin-1-yl)-1-methyl-1H-pyrazol-4-yl)-6-(2-fluorophenyl)picolinamide], the figures for the IC50 with BaF3 PIM1 cells (setting [2]) and with BaF3 parental cells (setting [3]) were 1400 nM and 7800 nM, respectively.

`Cn1ncc(NC(=O)c2nc(-c3ccccc3F)ccc2N)c1N1CCC(N)CC1` [Example 110, 3-amino-N-(5-(4-aminopiperidin-1-yl)-1-methyl-1H-pyrazol-4-yl)-6-(2-fluorophenyl)picolinamide]: the IC50 with BaF3 PIM1 cells (setting [2]) amounted to 1500 nM; in the assay on BaF3 parental cells (setting [3]) it was 12000 nM. In addition, the EC50 in assay [1] is 16100 nM.

For the molecule `Cn1ncc(NC(=O)c2nc(-c3ccccc3F)ccc2N)c1N1CC[C@H](CN)C1` [Example 136, (R)-3-amino-N-(5-(3-(aminomethyl)pyrrolidin-1-yl)-1-methyl-1H-pyrazol-4-yl)-6-(2-fluorophenyl)picolinamide], the values for the 50% inhibitory concentration (IC50) in the assay on BaF3 PIM1 cells (setting [2]) and with BaF3 parental cells (setting [3]) were 634 nM and 5900 nM, respectively.

For the molecule `Cn1ncc(NC(=O)c2nc(-c3c(F)cccc3F)sc2N)c1N1CC[C@H](CN)C1` [Example 135, (R)-5-amino-N-(5-(3-(aminomethyl)pyrrolidin-1-yl)-1-methyl-1H-pyrazol-4-yl)-2-(2,6-difluorophenyl)thiazole-4-carboxamide], the results for the Ki on PIM1, on PIM3 and at PIM2 were 0.506 nM, 0.344 nM and 10.6 nM, respectively. Also, the results for the half-inhibitory concentration (IC50) in the assay on BaF3 PIM1 cells (setting [2]) and with BaF3 parental cells (setting [3]) were 660 nM and 9300 nM, respectively.

In the case of `Cn1ncc(NC(=O)c2nc(-c3c(F)cccc3F)sc2N)c1OC1CCNCC1` [Example 120, 5-amino-2-(2,6-difluorophenyl)-N-(1-methyl-5-(piperidin-4-yloxy)-1H-pyrazol-4-yl)thiazole-4-carboxamide], the Ki on PIM1 worked out at 1.97 nM; at PIM3, 1.1 nM. Moreover, the results for the IC50 in the assay with BaF3 PIM1 cells (setting [2]) and in the assay with BaF3 parental cells (setting [3]) were 7800 nM and 25000 nM, respectively.

On to `Cn1ncc(NC(=O)c2nc(-c3ccccc3F)ccc2N)c1N1CCC[C@@H](N)CC1` [Example 145, (R)-3-amino-N-(5-(4-aminoazepan-1-yl)-1-methyl-1H-pyrazol-4-yl)-6-(2-fluorophenyl)picolinamide], for which the IC50 in the assay with BaF3 PIM1 cells (setting [2]) came out at 1000 nM; with BaF3 parental cells (setting [3]) it was 3800 nM.

Consider `Cn1ncc(NC(=O)c2nc(-c3c(F)cccc3F)sc2N)c1OCC1CCNCC1` [Example 115, 5-amino-2-(2,6-difluorophenyl)-N-(1-methyl-5-(piperidin-4-ylmethoxy)-1H-pyrazol-4-yl)thiazole-4-carboxamide], for which the Ki stood at 1.14 nM on PIM1, 1.08 nM at PIM3 and 46.1 nM at PIM2. Besides, the 50% inhibitory concentration (IC50) turned out to be 4500 nM in the assay on BaF3 PIM1 cells (setting [2]) and 6200 nM with BaF3 parental cells (setting [3]).

Turning to `Cn1ncc(NC(=O)c2nc(-c3ccccc3F)cnc2N)c1N1CCC[C@@H](N)CC1` [Example 141, (R)-3-amino-N-(5-(4-aminoazepan-1-yl)-1-methyl-1H-pyrazol-4-yl)-6-(2-fluorophenyl)pyrazine-2-carboxamide], the Ki at PIM3 stood at 0.295 nM; at PIM2 it was 3.52 nM. The IC50 in the assay on BaF3 PIM1 cells (setting [2]) was determined as 219 nM; with BaF3 parental cells (setting [3]), 1100 nM.

Turning to `Cn1ncc(NC(=O)c2nc(-c3ccccc3F)ccc2N)c1N1CCC[C@H](CN)C1` [Example 129, (R)-3-amino-N-(5-(3-(aminomethyl)piperidin-1-yl)-1-methyl-1H-pyrazol-4-yl)-6-(2-fluorophenyl)picolinamide], the inhibition constant Ki was 0.343 nM on PIM1, 1.33 nM on PIM3 and 10.2 nM at PIM2. The IC50 was determined as 5100 nM in the assay on BaF3 PIM1 cells (setting [2]) and 21500 nM in the assay with BaF3 parental cells (setting [3]).

As for `Cn1ncc(NC(=O)c2nc(-c3ccccc3F)cnc2N)c1N1CCC[C@H](N)C1` [Example 119, (S)-3-amino-N-(5-(3-aminopiperidin-1-yl)-1-methyl-1H-pyrazol-4-yl)-6-(2-fluorophenyl)pyrazine-2-carboxamide], the inhibition constant Ki on PIM3 was determined as 0.305 nM; at PIM2 it was 2.13 nM. Moreover, the IC50 was determined as 1300 nM in the assay with BaF3 PIM1 cells (setting [2]) and 5200 nM with BaF3 parental cells (setting [3]).

For `Cn1ncc(NC(=O)c2nc(-c3ccccc3F)ccc2N)c1N1CCCC(N)CC1` (stereo not shown) [Example 114, 3-amino-N-(5-(4-aminoazepan-1-yl)-1-methyl-1H-pyrazol-4-yl)-6-(2-fluorophenyl)picolinamide], the Ki at PIM1 was found to be 0.115 nM; on PIM3, 0.159 nM; on PIM2 it was 1.65 nM. The IC50 with BaF3 PIM1 cells (setting [2]) was 2300 nM; in the assay with BaF3 parental cells (setting [3]) it was 5500 nM.

Take `Cn1ncc(NC(=O)c2nc(-c3ccccc3F)cnc2N)c1N1CCC(N)CC1` [Example 122, 3-amino-N-(5-(4-aminopiperidin-1-yl)-1-methyl-1H-pyrazol-4-yl)-6-(2-fluorophenyl)pyrazine-2-carboxamide]: the Ki at PIM1 was 0.281 nM; at PIM3, 0.962 nM; on PIM2 it was 14.7 nM. Further, the IC50 in the assay on BaF3 PIM1 cells (setting [2]) came to 1100 nM; in the assay on BaF3 parental cells (setting [3]), 11900 nM.
